Test results as given in publication PMC5217299, “Triptolide Induces hepatotoxicity via inhibition of CYP450s in Rat liver microsomes” (BMC Complementary and Alternative Medicine, 2017).

Test system: T1, CYP3A
T1 construct: gene Cyp3a1; native isoenzyme mixture in liver microsomes of female SD rats
Assay: UHPLC-MS/MS of 1-hydroxymidazolam formation, cocktail probe, Michaelis-Menten fit
Conditions: liver microsomes of vehicle control rats; cocktail of six substrates together; NADPH regeneration system, pH 7.4, 37 °C

## Cc1ncc2n1-c1ccc(Cl)cc1C(c1ccccc1F)=NC2 [midazolam]
  Km: 1.99 ± 0.267 µM
